The values below come from patent US10759757B2, “Crystalline contrast agent for magnetic resonance imaging, kit and composition comprising it and their use” (Southern Medical University, priority 2016, dated 2020).

The conditions of assay [1]: literature values; cited from earlier work.
Assay [2] is described as follows: Longitudinal relaxation time (T1) measurement, r1 relaxivity in deionized water. The class given is physicochemical. How it is done: IR spectra were recorded on a […] 550 infrared spectrometer. Elemental analyses for C, H, and N were performed on an EA1110 CHNS elemental analyzer. Thermogravimetric analysis (TGA) was performed on an SDTA851 Thermogravimetric Analyzer at a heating rate of 10° C. min^-1 under a nitrogen gas flow in an Al2O3 pan. Powder X-ray diffraction (PXRD) spectra were recorded with a Rigaku D/max-2200/PC. The X-ray generated from a sealed Cu tube was mono-chromated by a graphite crystal and collimated by a 0.5 mm MONOCAP (λ Cu-Kα=1.54178 Å). The tube voltage and current were 40 kV and 40 mA, respectively. […] The measurement of the longitudinal relaxation time T1 was conducted at 30° C. Five samples of compounds 1 and 2 were prepared with the concentrations of 31.25, 62.5, 125, 250, and 500 μM in deionized water, respectively. Before the T1 test, these samples were ultrasonicated for 2 min to dissolve the compounds homogeneously in deionized water. The T1 of deionized water was tested as background. The T1 of the MOF solution was corrected from the background. The measurement time of each sample was ca. 2 min. […] On each image, signal intensities were measured by drawing ROIs in the center of each vial. The T1 relaxation times were performed by fitting the acquired inversion recovery images to a following equation: […]1)), where M and M0 are measured and initial magnetization, respectively. […]

SMILES strings stand for the structures. Like-named read-outs stand apart in the source and are kept apart here.

On to `CNC(=O)CN(CCN(CCN(CC(=O)[O-])CC(=O)NC)CC(=O)[O-])CC(=O)[O-].[Gd+3]` [OmniScan], for which, in assay [1], the r1 relaxivity was 4.1 mM⁻¹ s⁻¹.

Turning to `O=C([O-])CN(CCN(CC(=O)[O-])CC(=O)O)CCN(CC(=O)[O-])CC(=O)O.[Gd+3]` [Gd-DTPA], in assay [2] (0.5 T, 30° C., deionized water, 31.25 to 500 μM), the r1 relaxivity was found to be 4.87 mM⁻¹ s⁻¹. Also, the “relaxivity rates (r1), MRI phantom measurement” value in assay [2] (3T, in water) is given as 4.98 mM^−1S^−1.
